Measured values from US9694016B2 (Novartis AG, priority 2013, dated 2017).
pIC50: −log10 of the molar value.

Target: b-Raf (V600E) (Homo sapiens (Human), UniProt P15056, V600E)
Conditions: read-out: b-Raf IC-50

Chain of b-Raf (V600E) (P15056 whole entry V600E): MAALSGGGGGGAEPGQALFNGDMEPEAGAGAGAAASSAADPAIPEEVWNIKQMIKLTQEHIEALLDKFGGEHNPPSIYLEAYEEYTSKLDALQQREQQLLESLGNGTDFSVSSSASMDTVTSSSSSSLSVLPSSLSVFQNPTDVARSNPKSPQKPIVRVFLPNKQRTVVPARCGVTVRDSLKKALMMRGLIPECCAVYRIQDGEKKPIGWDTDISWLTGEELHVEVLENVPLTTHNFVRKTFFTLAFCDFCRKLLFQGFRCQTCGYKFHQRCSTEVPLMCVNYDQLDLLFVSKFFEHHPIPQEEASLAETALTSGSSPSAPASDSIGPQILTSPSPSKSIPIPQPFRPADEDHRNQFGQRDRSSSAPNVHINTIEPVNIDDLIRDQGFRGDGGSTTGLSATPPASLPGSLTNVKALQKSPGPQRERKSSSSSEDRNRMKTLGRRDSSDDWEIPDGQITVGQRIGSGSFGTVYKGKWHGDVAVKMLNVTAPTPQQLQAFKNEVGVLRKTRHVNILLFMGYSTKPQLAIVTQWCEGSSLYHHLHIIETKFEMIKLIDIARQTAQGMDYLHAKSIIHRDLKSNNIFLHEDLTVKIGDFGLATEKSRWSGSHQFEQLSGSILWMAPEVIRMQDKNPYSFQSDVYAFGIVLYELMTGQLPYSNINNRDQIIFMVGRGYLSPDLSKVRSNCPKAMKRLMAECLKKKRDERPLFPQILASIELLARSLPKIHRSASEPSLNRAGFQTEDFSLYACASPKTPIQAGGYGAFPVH

| Structure (SMILES) | pIC50 |
| --- | --- |
| CCOc1ncc(-c2cc(NC(=O)c3cnnc(C(F)(F)F)c3)cnc2C)cc1N1C2CCC1COC2 [Example 282, N-(5′-(3-oxa-8-azabicyclo[3.2.1]octan-8-yl)-6′-ethoxy-2-methyl-[3,3′-bipyridin]-5-yl)-6-(trifluoromethyl)pyridazine-4-carboxamide] | 7.28 |

Same assay, conditions: read-out: b-Raf IC-50; Table 2; AlphaScreen, 3 hours reaction

| Structure (SMILES) | pIC50 |
| --- | --- |
| CCOc1ncc(-c2cc(NC(=O)c3ccnc(C4COC4)c3)cnc2C)cc1N1CCOCC1 [Example 255, N-(6′-ethoxy-2-methyl-5′-morpholino-[3,3′-bipyridin]-5-yl)-2-(oxetan-3-yl)isonicotinamide] | 8.25 |
| C=C(C)c1ccc(F)c(NC(=O)c2ccc(C)c(-c3cnc(OCC)c(N4CCOCC4)c3)c2)c1 [Example 256, 3-(6-ethoxy-5-morpholinopyridin-3-yl)-N-(2-fluoro-5-(prop-1-en-2-yl)phenyl)-4-methylbenzamide] | 8.74 |
| CCOc1ncc(-c2cc(NC(=O)c3cc(N4CCN(CC)CC4)cc(C(F)(F)F)c3)cnc2C)cc1N1CCOCC1 [Example 257, N-(6′-ethoxy-2-methyl-5′-morpholino-[3,3′-bipyridin]-5-yl)-3-(4-ethylpiperazin-1-yl)-5-(trifluoromethyl)benzamide] | 8.00 |
| CCOc1ncc(-c2cc(NC(=O)c3cc(CN(C)C)cc(C(F)(F)F)c3)cnc2C)cc1N1CCOCC1 [Example 258, 3-((dimethylamino)methyl)-N-(6′-ethoxy-2-methyl-5′-morpholino-[3,3′-bipyridin]-5-yl)-5-(trifluoromethyl)benzamide] | 8.08 |
| CCOc1ncc(-c2cc(NC(=O)c3cnnc(C(F)(F)F)c3)cnc2C)cc1N1CCOCC1 [Example 259, N-(6′-ethoxy-2-methyl-5′-morpholino-[3,3′-bipyridin]-5-yl)-6-(trifluoromethyl)pyridazine-4-carboxamide] | 8.51 |
| COc1ncc(-c2cc(NC(=O)c3ccnc(C4(C#N)CC4)c3)cnc2Cl)cc1N1CCOCC1 [Example 260, N-(2-chloro-6′-methoxy-5′-morpholino-[3,3′-bipyridin]-5-yl)-2-(1-cyanocyclopropyl)isonicotinamide] | 8.54 |
| COc1ncc(-c2cc(NC(=O)c3ccnc(C(C)(F)F)c3)cnc2Cl)cc1N1CCOCC1 [Example 261, N-(2-chloro-6′-methoxy-5′-morpholino-[3,3′-bipyridin]-5-yl)-2-(1,1-difluoroethyl)isonicotinamide] | 8.74 |
| COc1ncc(-c2cc(NC(=O)c3ccnc(C(C)(C)F)c3)cnc2Cl)cc1N1CCOCC1 [Example 262, N-(2-chloro-6′-methoxy-5′-morpholino-[3,3′-bipyridin]-5-yl)-2-(2-fluoropropan-2-yl)isonicotinamide] | 8.47 |
| COc1ncc(-c2cc(NC(=O)c3cnnc(C(F)(F)F)c3)cnc2Cl)cc1N1CCOCC1 [Example 263, N-(2-chloro-6′-methoxy-5′-morpholino-[3,3′-bipyridin]-5-yl)-6-(trifluoromethyl)pyridazine-4-carboxamide] | 8.05 |
| COc1ncc(-c2cc(NC(=O)c3ccnc(C(C)(C)C#N)c3)cnc2Cl)cc1N1CCOCC1 [Example 264, N-(2-chloro-6′-methoxy-5′-morpholino-[3,3′-bipyridin]-5-yl)-2-(2-cyanopropan-2-yl)isonicotinamide] | 8.07 |
| Cc1ncc(NC(=O)c2ccnc(C(C)(C)C#N)c2)cc1-c1cnc(N(C)C)c(N2CCOCC2)c1 [Example 265, 2-(2-cyanopropan-2-yl)-N-(6′-(dimethylamino)-2-methyl-5′-morpholino-[3,3′-bipyridin]-5-yl)isonicotinamide] | 8.35 |
| Cc1ncc(NC(=O)c2ccnc(C3(C#N)CC3)c2)cc1-c1cnc(N(C)C)c(N2CCOCC2)c1 [Example 266, 2-(1-cyanocyclopropyl)-N-(6′-(dimethylamino)-2-methyl-5′-morpholino-[3,3′-bipyridin]-5-yl)isonicotinamide] | 8.72 |
| Cc1ncc(NC(=O)c2ccnc(C(C)(F)F)c2)cc1-c1cnc(N(C)C)c(N2CCOCC2)c1 [Example 267] | 8.96 |
| Cc1ncc(NC(=O)c2ccnc(C(C)(C)F)c2)cc1-c1cnc(N(C)C)c(N2CCOCC2)c1 [Example 268, N-(6′-(dimethylamino)-2-methyl-5-morpholino-[3,3′-bipyridin]-5-yl)-2-(2-fluoropropan-2-yl)isonicotinamide] | 8.80 |
| Cc1ncc(NC(=O)c2cc(CN(C)C)cc(C(F)(F)F)c2)cc1-c1cnc(N(C)C)c(N2CCOCC2)c1 [Example 269, N-(6′-(dimethylamino)-2-methyl-5′-morpholino-[3,3′-bipyridin]-5-yl)-3-((dimethylamino)methyl)-5-(trifluoromethyl)benzamide] | 8.62 |
| Cc1ncc(NC(=O)c2cnnc(C(F)(F)F)c2)cc1-c1cnc(N(C)C)c(N2CCOCC2)c1 [Example 270, N-(6′-(dimethylamino)-2-methyl-5′-morpholino-[3,3′-bipyridin]-5-yl)-6-(trifluoromethyl)pyridazine-4-carboxamide] | 9.30 |
| Cc1ncc(NC(=O)c2ccnc(C(F)(F)F)c2)cc1-c1cnc(OC2CCOCC2)c(N2C3CCC2COC3)c1 [Example 278, N-(5′-(3-oxa-8-azabicyclo[3.2.1]octan-8-yl)-2-methyl-6′-((tetrahydro-2H-pyran-4-yl)oxy)-[3,3′-bipyridin]-5-yl)-2-(trifluoromethyl)isonicotinamide] | 8.08 |
| Cc1ncc(NC(=O)c2ccnc(C(C)(C)F)c2)cc1-c1cnc(OC2CCOCC2)c(N2C3CCC2COC3)c1 [Example 279, N-(5′-(3-oxa-8-azabicyclo[3.2.1]octan-8-yl)-2-methyl-6′-((tetrahydro-2H-pyran-4-yl)oxy)-[3,3′-bipyridin]-5-yl)-2-(2-fluoropropan-2-yl)isonicotinamide] | 5.49 |

The remaining lines, values ahead:

| pIC50 | Structure (SMILES) |
| --- | --- |
| 9.15 | Cc1ncc(NC(=O)c2cnnc(C3CC3)c2)cc1-c1cnc(N(C)C)c(N2CCOCC2)c1 [Example 271, 6-cyclopropyl-N-(6′-(dimethylamino)-2-methyl-5′-morpholino-[3,3′-bipyridin]-5-yl)pyridazine-4-carboxamide] |
| 8.20 | Cc1ncc(NC(=O)c2ccnc(C(C)(C)C#N)c2)cc1-c1cnc(OC2CCOCC2)c(N2CCOCC2)c1 [Example 272, 2-(2-cyanopropan-2-yl)-N-(2-methyl-5′-morpholino-6′-((tetrahydro-2H-pyran-4-yl)oxy)-[3,3′-bipyridin]-5-yl)isonicotinamide] |
| 8.57 | Cc1ncc(NC(=O)c2ccnc(C(C)(C)F)c2)cc1-c1cnc(OC2CCOCC2)c(N2CCOCC2)c1 [Example 273, 2-(2-fluoropropan-2-yl)-N-(2-methyl-5′-morpholino-6′-((tetrahydro-2H-pyran-4-yl)oxy)-[3,3′-bipyridin]-5-yl)isonicotinamide] |
| 9.10 | Cc1ccc(NC(=O)c2ccnc(S(C)(=O)=O)c2)cc1-c1cnc(OC2CCOCC2)c(N2CCOCC2)c1 [Example 274, N-(4-methyl-3-(5-morpholino-6-((tetrahydro-2H-pyran-4-yl)oxy)pyridin-3-yl)phenyl)-2-(methylsulfonyl)isonicotinamide] |
| 9.30 | Cc1ccc(NC(=O)c2cnnc(C(F)(F)F)c2)cc1-c1cnc(OC2CCOCC2)c(N2CCOCC2)c1 [Example 275, N-(4-methyl-3-(5-morpholino-6-((tetrahydro-2H-pyran-4-yl)oxy)pyridin-3-yl)phenyl)-6-(trifluoromethyl)pyridazine-4-carboxamide] |
| 9.40 | Cc1ccc(NC(=O)c2cnnc(C3CC3)c2)cc1-c1cnc(OC2CCOCC2)c(N2CCOCC2)c1 [Example 276, 6-cyclopropyl-N-(4-methyl-3-(5-morpholino-6-((tetrahydro-2H-pyran-4-yl)oxy)pyridin-3-yl)phenyl)pyridazine-4-carboxamide] |
| 9.00 | Cc1ccc(NC(=O)c2ccnc(C(C)(C)O)c2)cc1-c1cnc(OC2CCOCC2)c(N2CCOCC2)c1 [Example 277, 2-(2-hydroxypropan-2-yl)-N-(4-methyl-3-(5-morpholino-6-((tetrahydro-2H-pyran-4-yl)oxy)pyridin-3-yl)phenyl)isonicotinamide] |
| 8.96 | CCOc1ncc(-c2cc(NC(=O)c3cnnc(C(F)(F)F)c3)ccc2C)cc1N1CCOCC1 [Example 280, N-(3-(6-ethoxy-5-morpholinopyridin-3-yl)-4-methylphenyl)-6-(trifluoromethyl)pyridazine-4-carboxamide] |
| 8.20 | COc1ncc(-c2cc(NC(=O)c3ccnc(C(C)(C)F)c3)cnc2C)cc1N1CCOCC1 [Example 281, N-(6′-methoxy-2-methyl-5′-morpholino-[3,3′-bipyridin]-5-yl)-2-(2-fluoropropan-2-yl)isonicotinamide] |
| 8.22 | COc1ncc(-c2cc(NC(=O)c3ccnc(C4(C#N)CC4)c3)cnc2C)cc1N1CCOCC1 [Example 283, 2-(1-cyanocyclopropyl)-N-(6′-methoxy-2-methyl-5-morpholino-[3,3′-bipyridin]-5-yl)isonicotinamide] |
| 8.96 | CCOc1ncc(-c2cc(NC(=O)c3cnnc(C(C)(C)C#N)c3)ccc2C)cc1N1CCOCC1 [Example 284, 6-(2-cyanopropan-2-yl)-N-(3-(6-ethoxy-5-morpholinopyridin-3-yl)-4-methylphenyl)pyridazine-4-carboxamide] |
| 6.70 | CCOc1ncc(-c2cc(NC(=O)c3cnnc(C(F)(F)F)c3)cnc2C)cc1N1CCOC[C@H]1C [Example 285] |
| 6.70 | CCOc1ncc(-c2cc(NC(=O)c3cnnc(C(F)(F)F)c3)cnc2C)cc1N1CCOC[C@@H]1C [Example 286, (S)—N-(6′-ethoxy-2-methyl-5′-(3-methylmorpholino)-[3,3′-bipyridin]-5-yl)-6-(trifluoromethyl)pyridazine-4-carboxamide] |
| 7.78 | CCOc1ncc(-c2cc(NC(=O)c3cnnc(C(C)(C)C#N)c3)cnc2C)cc1N1CCOCC1 [Example 287, 6-(2-cyanopropan-2-yl)-N-(6′-ethoxy-2-methyl-5′-morpholino-[3,3′-bipyridin]-5-yl)pyridazine-4-carboxamide] |
| 8.22 | Cc1ncc(NC(=O)c2ccnc(C3(C#N)CC3)c2)cc1-c1cnc(Cl)c(N2CCOCC2)c1 [Example 288, N-(6′-chloro-2-methyl-5-morpholino-[3,3′-bipyridin]-5-yl)-2-(1-cyanocyclopropyl)isonicotinamide] |
